# According to patent US20250222028A1, “ENGINEERED IMMUNE CELL PLATFORM” (Cancer Research Technology Limited, priority 2022, published 2025):
# Key:
# Gli1 [1] = assay: Gli1 expression by qRT-PCR in anti-CD3ε-stimulated murine CD8+ CTLs; format: cell-based; conditions: anti-CD3ε restimulation 6 hours
# Protocol: (§1) FIG. 1. L-type Cav channel agonists increase Gli1 expression and enhance specific cell killing by murine CD8+ CTLs. CD8^+ T cells were isolated from the spleen and inguinal lymph nodes of Rag2^−/− OT-I mice, and CTLs were generated. (A) Cells were restimulated on day 9/10 for 3 hours using plate-bound anti-CD3ε in the presence of indicated concentrations of FPL 64176 or carrier control. RNA was extracted and Gli1 expression was assessed by qRT-PCR. Data is n=3 independent experiments. us=unstimulated cells. (B) An LDH cytotoxicity assay was performed using OT-I CTLs. On day 7, CTLs were co-cultured with Ova peptide-pulsed EL-4 cells in the presence of 10 μM FPL 64176 (squares) or carrier control (circles). Data is n=4 independent experiments. (C) Updated experiment of (A). Data is now n=4 independent experiments. Data is normalised to Tbp as a reference gene. 0h=unstimulated cells. (D) Same data as (B) represented differently. […] Error bars indicate SD. p values were calculated using an unpaired two-tailed Student's t test (C) or a two-way ANOVA (B/D). * indicates p<0.05, ** indicates p<0.01, **** indicates p<0.0001.
# FIG. 2. FPL 64176 but not (R)-Baclofen nor Nefiracetam enhance Gli1 expression in murine CD8+ CTLs. Naïve CD8^+ T cells were isolated from the spleens of OT-I Rag2^−/− mice and CTLs were generated. Cells were restimulated using an anti-CD3ε mAb in the presence indicated concentrations of (A) FPL 64176, (B) (R)-Baclofen or (C) Nefiracetam (or carrier control). CTLs were pre-incubated with the relevant pharmacological agents for 40-50 mins prior to stimulation (ensuring sufficient time for the agents, e.g., FPL 64176, to enter the cell. Gli1 expression was assessed by qRT-PCR. Data is n=2 independent experiments. Error bars indicate SD.
# To investigate a potential role for L-type Cav channel agonists in modulating CD8+ CTL activation and effector function, CD8+ T cells were isolated from the spleen and inguinal lymph nodes of Rag2−/− OT-I mice and CTLs were generated. […] OT-I mice bear a transgene encoding for a TCR that recognises a chicken ovalbumin (Ova) peptide fragment. Rag2−/− OT-I mice facilitate the isolation of naïve CD8+ T cell populations. Plates were coated using 2.5 μg/mL anti-CD3ε mAb and CD8+ CTLs were stimulated for 3 hours via the TCR in the presence of 5 or 10 μM FPL 64176, an L-type Cav channel agonist, or carrier control. Note that CD8+ CTLs were pre-incubated with FPL 64176 or carrier control for 40-50 mins before stimulation. Gli1 expression was assessed using qRT-PCR.
# In brief, naïve CD8+ T cells were isolated from the spleen and inguinal lymph nodes of C57BL/6 wildtype mice and CTLs were generated. […] RNA was extracted from cells and Gli1 expression was assessed by qRT-PCR. […]
# EL-4 tumour cells = assay: LDH cytotoxicity assay, OT-I CD8+ CTLs co-cultured with Ova peptide-pulsed EL-4 target cells; format: cell-based, murine; conditions: 1.25 mM BAPTA, LDH assay 3 h
# Protocol: as §1
# FIG. 11. […] (A) Quantitative analysis of live cell numbers. […] (E) Quantitative analysis of live cell numbers. […]
# To ensure that the use of L-type Cav agonist is not adversely affecting immune cells, general cell functions were assessed. […]
# GLI1 [2] = assay: GLI1 expression by qRT-PCR in NK-92 cells; format: cell-based, human; conditions: stimulated with anti-NKp46 mAb 4 hours, 100 μM, vs carrier control
# Protocol: FIG. 5. L-type Cav channel agonists increase GLI1 expression in the human NK cell line NK-92 and promote specific tumour cell killing. (A) NK-92 cells were stimulated using an anti-NKp46 mAb for 4 hours in the presence of 10 μM FPL 64176, and GLI1 expression was assessed using qRT-PCR. Data is n=4 independent experiments. (B) NK-92 cells were stimulated using an anti-NKp46 mAb for 4 hours in the presence of 100 μM Bay K8644, and GLI1 expression was assessed using qRT-PCR. Data is n=3 independent experiments. (C) An LDH assay was performed to assess specific cell killing of K562 target cells at indicated effector to target ratios in the presence of 10 μM FPL 64176 (right-hand columns) or carrier control (left-hand columns). Error bars indicate SD. Data is from n=3 independent experiments.
# To investigate whether L-type Cav channel agonists are also capable of enhancing GLI1 mRNA levels in the human NK cell line NK-92 (a non-Hodgkin's lymphoma cell line, expressing only Cav1.3), NK-92 cells were stimulated using an anti-NKp46 mAb (5 μg/mL) for 4 hours in the presence of either 10 μM FPL 64176 or 100 μM Bay K8644. For reference, Bay K8644 is a structural analogue of nifedipine, and acts as an L-type Cav channel agonist. GLI1 expression was assessed using qRT-PCR. […] These observations confirm that the GLI1-inducing effect of Cav agonists is not merely restricted to the compound FPL 64176. In particular, in NK cells.
compound,measurement,setting,value
NC[C@H](CC(=O)O)c1ccc(Cl)cc1 [(R)-Baclofen],Gli1 expression following TCR activation,"Gli1 [1]; indicated concentrations, vs carrier control (FIG. 2)",little effect
O=C(O)CN(CC(=O)O)c1ccccc1OCCOc1ccccc1N(CC(=O)O)CC(=O)O [BAPTA],immune cell killing,EL-4 tumour cells,depleted
COC(=O)C1=C(C)NC(C)=C([N+](=O)[O-])C1c1ccccc1C(F)(F)F (stereo not shown) [Bay K8644],GLI1 mRNA levels,GLI1 [2],increased (almost two-fold)
Cc1cccc(C)c1NC(=O)CN1CCCC1=O [Nefiracetam],reduction of Gli1 expression,Gli1 [1]; vs carrier control (FIG. 2C),around 50%
